PMC9596378, “Discovery and molecular basis of subtype-selective cyclophilin inhibitors” (Nature Chemical Biology, 2022)
Several values for one entry are separate records, joined by “and”; a condition that tells them apart may be missing. Identical values can stand only once. Blank lines part the entries; values can stand above or below the molecule they belong to.

Legend:
[1] = system: HeLa cells; assay: Fluorescence microscopy of Cy5-conjugated compounds; assay type: cell-based, human
Protocol: Cells were seeded into 96-well, black, clear-bottom, TC-treated plates, in DMEM supplemented with 10% FBS 24 h prior at a density where wells were ~80% confluent at the time of the experiment. Medium was removed and cells were then stained with 50 µL mixture containing Cy5-labeled compound (6 µM) in Kreb’s ringer solution HEPES buffered pH 7.2 (KRB), for 1 h at 37 °C. Then, 50 µL Hoechst 33342 (8 µM) and Mitotracker Green FM (0.1 µM) in KRB was added directly to wells containing cells and incubated for 15 min at 37 °C. Medium was removed and cells were washed twice with 100 µL KRB. Cells were then kept adherent to the wells in 100 µL KRB for imaging. Fluorescence microscopy was conducted on an Opera Phenix Plus High-Content Screening System, using Alexa 488, Alexa 647, and Hoescht 33342 channels. Images were analyzed using Harmony v.4.9.

[2] = system: isolated mouse liver mitochondria; assay: Mitochondrial calcium retention capacity assay (mPTP opening); conditions: for calcium retention capacity before mPTP opening (in words): 2 µM CsA, 10 µM B52-Cy5/*B52-Cy5, 20 µM B53-Cy5/*B53-Cy5, vs DMSO; for Normalized # Pulses (calcium retention capacity ratio to DMSO): 60 µM CaCl2 pulses, individual mitochondrial preparations
Protocol: All procedures used in animal studies were approved by the Institutional Animal Care and Use Committee at Massachusetts General Hospital. Female C57BL/6J mice (Jackson Labs) age 10–12 weeks were anesthetized by isoflurane. The liver from one mouse was rinsed in ice-cold PBS, minced in ice-cold isolation buffer containing 0.28 M sucrose, 10 mM Hepes-KOH pH 7.2, 0.2 mM EDTA and 1% (w/v) bovine serum albumin, gently homogenized with four strokes of a tight-fitting Teflon pestle at 1,000 r.p.m., and then centrifuged for 10 min at 600g at 4 °C. The supernatant was recovered and centrifuged for 10 min at 8,000g at 4 °C. The loose outer buffy coat was rinsed off and the pellet resuspended gently in isolation buffer and the spins were repeated. […] The suspension was kept on ice and all assays performed within 4–6 h following isolation. Quality control was done with every preparation by adding 250 mcg mitochondria to 500 µL assay buffer containing 137 mM KCl, 10 mM Hepes-KOH pH 7.2, 2.5 mM MgCl2, 5 mM each of glutamate and malate, and 3 mM KH2PO4. Sequential 150 µM ADP pulses were then delivered. Only preparations with respiratory control ratio >6 (as assessed by the ratio of ADP-coupled state 3 respiration to state 4 respiration) were used for further experiments. Measurements were made in a custom-built spectrometer.
Two hundred and fifty micrograms of mouse liver mitochondria isolated as above were added to 500 µL assay buffer containing 125 mM KCl, 20 mM Hepes-KOH pH 7.2, 1 mM MgCl2, 5 mM each of glutamate and malate, and 3 mM KH2PO4. 0.5 µM Calcium Green 5N (Molecular Probes) was included to monitor extramitochondrial free Ca^2+. Fluorescence was continuously monitored in the custom-built fluorimeter described above, with excitation 470 nm and emission 520–560 nm. […] The calcium retention capacity ratio was obtained by normalizing the number of Ca^2+ pulses that could be taken up in a given condition by that taken up under DMSO control conditions, as previously described.

[3] = target: T1, CypE K212A (Homo sapiens, UniProt Q9UNP9, K212A); assay: Competition anisotropy binding assay with A26-Fl; conditions: FP competition with 0.5 nM A26-Fl, 24 h
T1 construct: Lane 4- GS-CypE K212A (131-301);; His6 tag with thrombin site (pET28a LIC); GS remnant stays on the N-terminus (N, cleaved yes); host or cells: E. coli BL21(DE3)
T1 sequence (Q9UNP9 131-301 K212A): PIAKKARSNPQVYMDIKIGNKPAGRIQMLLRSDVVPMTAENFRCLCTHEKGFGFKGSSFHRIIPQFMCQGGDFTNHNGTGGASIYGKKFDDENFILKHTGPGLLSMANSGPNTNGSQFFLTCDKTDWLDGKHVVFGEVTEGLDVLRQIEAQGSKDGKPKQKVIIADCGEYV
Protocol: (§1) Adapted from previous work[52], cyclophilin in assay buffer (25 mM HEPES pH 8.0, 100 mM NaCl, 0.01% Triton X-100) at a pre-determined concentration from Supplementary Table 6 was incubated with 0.5 nM A26-Fl for 10 min at room temperature in a flat-bottom black untreated 96-well plate (Corning). Competitor macrocycle was then added to each well and incubated for 24 h. Final assay volume was 100 µL with 0.25% DMSO. Fluorescence anisotropy was then measured using a Tecan Spark plate reader using 492 nm/523 nm excitation/emission settings.

[4] = target: T2, PPIL1 (Homo sapiens, UniProt Q9Y3C6); assay: Competition anisotropy binding assay with A26-Fl; conditions: FP competition with 0.5 nM A26-Fl, 24 h
T2 construct: PPIL1 (UniProtKB Entry Q9Y3C6: residues 1–166); made in house; host or cells: E. coli BL21(DE3)
T2 sequence (Q9Y3C6 1-166): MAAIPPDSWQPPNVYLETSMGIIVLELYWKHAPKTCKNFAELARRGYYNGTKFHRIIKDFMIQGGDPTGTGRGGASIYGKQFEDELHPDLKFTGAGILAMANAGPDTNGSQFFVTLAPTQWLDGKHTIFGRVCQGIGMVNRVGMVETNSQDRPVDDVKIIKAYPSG
Protocol: as §1

[5] = target: T3, PPIL3 (Homo sapiens, UniProt Q9H2H8); assay: Competition anisotropy binding assay with A26-Fl; conditions: FP competition with 0.5 nM A26-Fl, 24 h
T3 construct: PPIL3 (UniProtKB Entry Q9H2H8: residues 1–161); His6 tag with TEV site (2BT vector); SNA remnant stays on the N-terminus (N, cleaved yes); made in house; host or cells: E. coli BL21(DE3)
T3 sequence (Q9H2H8 whole entry, the tested form may be a part): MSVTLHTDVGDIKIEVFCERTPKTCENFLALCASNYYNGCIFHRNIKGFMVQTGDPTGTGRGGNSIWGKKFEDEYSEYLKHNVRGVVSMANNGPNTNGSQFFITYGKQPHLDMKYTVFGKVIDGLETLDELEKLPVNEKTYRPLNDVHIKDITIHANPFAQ
Protocol: as §1

[6] = target: T4, CypE (Homo sapiens, UniProt Q9UNP9); assay: Competition anisotropy binding assay with A26-Fl
T4 construct: PPIE (UniProtKB Entry Q9UNP9: residues 131–301); host or cells: E. coli BL21(DE3)
T4 sequence (Q9UNP9 131-301): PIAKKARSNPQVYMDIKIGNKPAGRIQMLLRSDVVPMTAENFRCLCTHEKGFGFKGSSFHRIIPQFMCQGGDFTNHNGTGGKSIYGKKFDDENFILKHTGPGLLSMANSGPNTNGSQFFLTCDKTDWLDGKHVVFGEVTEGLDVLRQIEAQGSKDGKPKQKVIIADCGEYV
Protocol: as §1

[7] = target: T5, CypA (Homo sapiens, UniProt P62937); assay: Competition anisotropy binding assay with A26-Fl; conditions: FP competition with 0.5 nM A26-Fl, 24 h
T5 construct: PPIA (UniProtKB Entry P62937: residues 1–165); made in house; host or cells: E. coli BL21(DE3)
T5 sequence (P62937 whole entry, the tested form may be a part): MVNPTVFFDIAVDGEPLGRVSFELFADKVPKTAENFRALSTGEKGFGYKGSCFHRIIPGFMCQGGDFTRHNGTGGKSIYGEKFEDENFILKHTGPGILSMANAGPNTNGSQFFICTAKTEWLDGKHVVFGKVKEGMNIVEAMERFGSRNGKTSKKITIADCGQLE
Protocol: as §1

[8] = target: T6, CypB (Homo sapiens, UniProt P23284); assay: Competition anisotropy binding assay with A26-Fl; conditions: FP competition with 0.5 nM A26-Fl, 24 h
T6 construct: PPIB (UniProtKB Entry P23284: residues 34–216); His6 with TEV site (2BT vector leader) (N); made in house; host or cells: E. coli BL21(DE3)
T6 sequence (P23284 34-216): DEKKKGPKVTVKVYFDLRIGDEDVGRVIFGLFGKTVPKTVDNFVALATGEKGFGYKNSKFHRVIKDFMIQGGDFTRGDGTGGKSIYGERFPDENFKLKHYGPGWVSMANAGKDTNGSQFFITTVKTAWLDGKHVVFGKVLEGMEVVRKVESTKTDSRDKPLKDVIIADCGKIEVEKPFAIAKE
Protocol: as §1

[9] = target: T7, CypE K217A (Homo sapiens, UniProt Q9UNP9, K217A); assay: Competition anisotropy binding assay with A26-Fl
T7 construct: Lane 5- GS-CypE K217A (131-301);; His6 tag with thrombin site (pET28a LIC); GS remnant stays on the N-terminus (N, cleaved yes); host or cells: E. coli BL21(DE3)
T7 sequence (Q9UNP9 131-301 K217A): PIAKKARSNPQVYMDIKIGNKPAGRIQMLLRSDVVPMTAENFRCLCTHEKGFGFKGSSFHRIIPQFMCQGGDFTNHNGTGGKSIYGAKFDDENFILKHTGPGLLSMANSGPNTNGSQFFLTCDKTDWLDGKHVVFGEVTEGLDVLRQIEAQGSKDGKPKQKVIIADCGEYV
Protocol: as §1

[10] = target: T8, CypE K218A (Homo sapiens, UniProt Q9UNP9, K218A); assay: Competition anisotropy binding assay with A26-Fl; conditions: FP competition with 0.5 nM A26-Fl, 24 h
T8 construct: Lane 6- GS-CypE K218A (131-301);; His6 tag with thrombin site (pET28a LIC); GS remnant stays on the N-terminus (N, cleaved yes); host or cells: E. coli BL21(DE3)
T8 sequence (Q9UNP9 131-301 K218A): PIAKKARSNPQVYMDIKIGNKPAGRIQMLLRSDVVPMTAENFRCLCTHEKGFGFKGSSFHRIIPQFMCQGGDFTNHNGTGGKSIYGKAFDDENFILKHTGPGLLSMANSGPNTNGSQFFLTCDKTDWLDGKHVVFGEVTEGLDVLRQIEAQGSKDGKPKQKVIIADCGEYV
Protocol: as §1

plasma membrane permeability / mitochondrial localization (in words) [1]: poor
Compound: C[N+]1=C(C=CC=CC=C2N(CCCCCC(=O)NCCNC(=O)C3CCNC(=O)C=CC(=O)N4CCCC(Cc5ccccc5)(C4)C(=O)NC(Cc4ccc(-c5ccc(CC(C(=O)O)C(=O)O)cc5)cc4)C(=O)NCc4ccccc4CC(=O)N3)c3ccccc3C2(C)C)C(C)(C)c2ccccc21 (stereo not shown) [*B52-Cy5]
calcium retention capacity before mPTP opening (in words) [2]: do not influence calcium retention capacity | Normalized # Pulses (calcium retention capacity ratio to DMSO) ([2]; 10 µM compound): 1

plasma membrane permeability / mitochondrial localization (in words) [1]: poor
Compound: C[N+]1=C(C=CC=CC=C2N(CCCCCC(=O)NCCNC(=O)C3CCNC(=O)C=CC(=O)N4CCCC(Cc5ccccc5)(C4)C(=O)NC(Cc4ccc(-c5ccc(C(CC(=O)O)CC(=O)O)cc5)cc4)C(=O)NCc4ccccc4CC(=O)N3)c3ccccc3C2(C)C)C(C)(C)c2ccccc21 (stereo not shown) [*B53-Cy5]
calcium retention capacity before mPTP opening (in words) [2]: do not influence calcium retention capacity | Normalized # Pulses (calcium retention capacity ratio to DMSO) ([2]; 20 µM compound): 1

Compound: C[N+]1=C(C=CC=CC=C2N(CCCCCC(=O)NCCNC(=O)C3CCNC(=O)C=CC(=O)N4CCCC(Cc5ccccc5)(C4)C(=O)NC(Cc4ccc(-c5ccc(CC(C(=O)O)C(=O)O)cc5)cc4)C(=O)NCc4ccccc4CC(=O)N3)c3ccccc3C2(C)C)C(C)(C)c2ccccc21 (stereo not shown) [Compound B52-Cy5]
plasma membrane permeability / mitochondrial localization (in words) [1]: poor and did not observe efficient plasma membrane permeability | calcium retention capacity before mPTP opening (in words) [2]: substantially increased calcium retention capacity | Normalized # Pulses (calcium retention capacity ratio to DMSO) ([2]; 10 µM compound): 4.333 and 3 and 4

Compound: C[N+]1=C(C=CC=CC=C2N(CCCCCC(=O)NCCNC(=O)C3CCNC(=O)C=CC(=O)N4CCCC(Cc5ccccc5)(C4)C(=O)NC(Cc4ccc(-c5ccc(C(CC(=O)O)CC(=O)O)cc5)cc4)C(=O)NCc4ccccc4CC(=O)N3)c3ccccc3C2(C)C)C(C)(C)c2ccccc21 (stereo not shown) [Compound B53-Cy5]
plasma membrane permeability / mitochondrial localization (in words) [1]: poor and did not observe efficient plasma membrane permeability | calcium retention capacity before mPTP opening (in words) [2]: substantially increased calcium retention capacity | Normalized # Pulses (calcium retention capacity ratio to DMSO) ([2]; 20 µM compound): 2.667 and 1.25 and 2

Compound: NC(=O)C1CCNC(=O)C=CC(=O)N2CCCC(Cc3ccccc3)(C2)C(=O)NC(Cc2ccc(-c3ccc(C=O)c(B(O)O)c3)cc2)C(=O)NCc2ccccc2CC(=O)N1 (stereo not shown) [Compound C3A]
Ki [3]: 0.098 µM | Ki [4]: 1.1 µM | Ki [5]: > 10 µM | selectivity for CypE over other tested cyclophilins ([6]; FP competition with A26-Fl): ≥ 10 fold | Ki [7]: 1.8 µM | Ki [8]: 5.6 µM | less potent at competing A26-Fl from CypE K217A compared to wild-type CypE [9]: 40 fold | Ki [10]: 0.25 µM

Compound: NC(=O)[C@@H]1CCNC(=O)/C=C/C(=O)N2CCC[C@](Cc3ccccc3)(C2)C(=O)N[C@@H](Cc2ccc(-c3cccc(B(O)O)c3)cc2)C(=O)NCc2ccccc2CC(=O)N1 [Compound C6A]
Ki ([6]; FP competition with 0.5 nM A26-Fl, 24 h): 7 µM | reduced potency relative to C3A ([6]; FP competition with A26-Fl, CypE): 100 fold
